# Source: ChEMBL document CHEMBL1124638, “2,4-Diamino-5-benzylpyrimidines and analogues as antibacterial agents. 10. 2,4-Diamino-5-(6-quinolylmethyl)- and -[(tetrahydro-6-quinolyl)methyl]pyrimidine derivatives. Further specificity studies” (J Med Chem, 1989)
# Legend:
# [1] = test system: Bordetella bronchiseptica; assay: Comparative in vitro antibacterial activity with trimethoprim against Bordetella bronchiseptica CN385; type: functional
# Citrobacter freundii = assay: Comparative in vitro antibacterial activity with trimethoprim against Citrobacter freundii 2200/77; type: functional
# Dihydrofolate reductase [2] = target: T1, Dihydrofolate reductase (Rattus norvegicus, UniProt Q920D2); assay: Inhibitory activity against dihydrofolate reductase in rat liver; details: read-out: I50
# T1 sequence (Q920D2 whole entry): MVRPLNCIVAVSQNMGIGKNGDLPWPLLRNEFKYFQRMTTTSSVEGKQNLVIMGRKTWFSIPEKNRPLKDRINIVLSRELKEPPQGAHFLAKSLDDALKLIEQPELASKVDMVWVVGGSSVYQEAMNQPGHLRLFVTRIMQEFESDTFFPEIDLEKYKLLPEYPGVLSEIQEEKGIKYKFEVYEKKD
# Escherichia coli = assay: Comparative in vitro antibacterial activity with trimethoprim against Escherichia coli CN314; type: functional
# Klebsiella aerogenes = assay: Comparative in vitro antibacterial activity with trimethoprim against Enterobacter aerogenes 2200/86; type: functional
# [3] = test system: Mycolicibacterium smegmatis; assay: Comparative in vitro antibacterial activity with trimethoprim against Mycobacterium smegmatis S 3254; type: functional
# Proteus mirabilis = assay: Comparative in vitro antibacterial activity with trimethoprim against Proteus mirabilis S2409; type: functional
# Proteus vulgaris = assay: Comparative in vitro antibacterial activity with trimethoprim against Proteus vulgaris CN329; type: functional
# [4] = Comparative in vitro antibacterial activity with trimethoprim against Salmonella typhi CN512; type: functional, salmonella typhosa
# Shigella flexneri = assay: Comparative in vitro antibacterial activity with trimethoprim against Shigella flexneri CN6007; type: functional
# Serratia marcescens = assay: Comparative in vitro antibacterial activity with trimethoprim against Serratia marcescens CN2398; type: functional
# Salmonella typhimurium = assay: Comparative in vitro antibacterial activity with trimethoprim against Salmonella Typhimurium S 8587; type: functional, Salmonella enterica subsp. enterica serovar Typhimurium; details: Salmonella enterica
# Streptococcus pyogenes = assay: Comparative in vitro antibacterial activity of compound with trimethoprim against Streptococcus pyogenes CN10; type: functional
# Staphylococcus aureus = assay: Comparative in vitro antibacterial activity with trimethoprim against Staphylococcus aureus CN491; type: functional
# Enterococcus faecalis = assay: Comparative in vitro antibacterial activity with trimethoprim against Streptococcus faecalis CN478; type: functional
# Streptococcus agalactiae = assay: Comparative in vitro antibacterial activity with trimethoprim against Streptococcus agalactiae CN1143; type: functional
# Vibrio cholerae = assay: Comparative in vitro antibacterial activity with trimethoprim against Vibrio cholerae ATCC 14035; type: functional
# Pasteurella multocida = assay: Comparative in vitro antibacterial activity with trimethoprim against Pasteurella multocida ATCC 6587; type: functional
# Klebsiella pneumoniae = assay: Comparative in vitro antibacterial activity with trimethoprim against Klebsiella pneumoniae CN3632; type: functional
# Dihydrofolate reductase [5] = target: Dihydrofolate reductase (Neisseria gonorrhoeae, UniProt P04174); assay: Inhibitory activity against Dihydrofolate reductase in Neisseria gonorrhoeae; details: read-out: I50
# Chain of Dihydrofolate reductase (Neisseria gonorrhoeae, UniProt P04174) (P04174 whole entry): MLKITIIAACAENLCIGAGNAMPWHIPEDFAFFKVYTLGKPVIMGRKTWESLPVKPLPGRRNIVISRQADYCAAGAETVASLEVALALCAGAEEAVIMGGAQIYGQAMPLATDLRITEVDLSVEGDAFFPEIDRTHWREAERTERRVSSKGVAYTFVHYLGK
Structure (SMILES),MIC [1] [µg/mL],MIC (Citrobacter freundii) [µg/mL],IC50 (Dihydrofolate reductase [2]) [µM],MIC (Escherichia coli) [µg/mL],MIC (Klebsiella aerogenes) [µg/mL],MIC [3] [µg/mL],MIC (Proteus mirabilis) [µg/mL],MIC (Proteus vulgaris) [µg/mL],MIC [4] [µg/mL],MIC (Shigella flexneri) [µg/mL],MIC (Serratia marcescens) [µg/mL],MIC (Salmonella typhimurium) [µg/mL],MIC (Streptococcus pyogenes) [µg/mL],MIC (Staphylococcus aureus) [µg/mL],MIC (Enterococcus faecalis) [µg/mL],MIC (Streptococcus agalactiae) [µg/mL],MIC (Vibrio cholerae) [µg/mL],MIC (Pasteurella multocida) [µg/mL],MIC (Klebsiella pneumoniae) [µg/mL],IC50 (Dihydrofolate reductase [5]) [µM]
COc1cc(Cc2cnc(N)nc2N)cc2cccnc12,30,10,12,3,3,1,3,3,3,3,1,3,3,3,3,3,1,3,3,–
COc1cc(Cc2cnc(N)nc2N)cc2c(C)cc(C)nc12,3,3,43,3,3,1,0.3,3,1,3,1,3,0.1,0.3,1,1,0.3,1,1,–
CC1CC(C)c2cc(Cc3cnc(N)nc3N)cc(Cl)c2N1 (configuration not stated),100,100,41,100,100,10,30,100,100,300,> 10,100,3,3,3,3,3,30,100,0.24
COc1cc(Cc2cnc(N)nc2N)cc2c1NCCC2C (configuration not stated),10,10,–,3,3,1,3,10,10,10,3,10,1,1,1,1,1,3,3,–
COc1cc(Cc2cnc(N)nc2N)cc2c1N(C)CCC2C (configuration not stated),3,3,–,3,3,3,3,10,3,10,3,10,–,1,0.3,0.3,3,3,3,0.89
CCOC(=O)C1CNc2c(cc(Cc3cnc(N)nc3N)cc2OC)C1 (configuration not stated),> 100,10,44,30,10,30,> 30,> 100,100,10,> 10,30,3,30,30,10,30,30,100,–
COCCOc1cc(Cc2cnc(N)nc2N)cc2cccnc12,30,300,9.9,100,100,3,> 30,> 100,100,100,> 10,100,3,10,3,10,30,30,100,–
Cc1ccnc2c(N)cc(Cc3cnc(N)nc3N)cc12,30,10,32,10,10,10,1,3,10,30,30,30,–,3,3,10,3,10,10,–
Cc1ccnc2ccc(Cc3cnc(N)nc3N)c(N)c12,> 100,100,15,100,300,100,30,> 100,100,100,> 10,100,30,30,10,100,100,300,100,–
CCN1CCC(C)c2cc(Cc3cnc(N)nc3N)ccc21 (configuration not stated),100,100,38,100,100,10,30,100,100,100,> 30,100,–,3,3,3,10,30,100,0.69
Cc1ccnc2c([N+](=O)[O-])cc(Cc3cnc(N)nc3N)cc12,3,10,5.7,10,10,1,10,10,3,10,30,10,1,1,3,1,1,3,10,–
Nc1ncc(Cc2ccc3ncccc3c2)c(N)n1,10,10,18,3,3,0.3,3,10,10,10,3,10,3,30,3,3,3,10,3,–
Nc1ncc(Cc2ccc3c(c2)CCCN3)c(N)n1,10,10,140,30,10,3,10,10,10,30,10,10,10,30,10,10,10,10,10,–
CN1CCCc2cc(Cc3cnc(N)nc3N)ccc21,30,30,89,30,30,10,10,30,30,10,30,30,–,10,3,10,10,30,30,0.95
Cc1ccnc2ccc(Cc3cnc(N)nc3N)cc12,1,3,22,3,3,1,1,1,1,3,1,3,3,1,1,1,1,1,1,–
CCOC(=O)C1CNc2c(OC)cc(Cc3cnc(N)nc3N)c(OC)c2C1 (configuration not stated),–,–,142,–,–,–,–,–,–,–,–,–,–,–,–,–,–,–,–,1.9
COCCN1CCC(C)c2cc(Cc3cnc(N)nc3N)cc(OC)c21 (configuration not stated),100,100,260,30,30,10,–,> 100,30,100,> 10,100,1,3,0.3,3,100,30,30,1.4
COc1cc(Cc2cnc(N)nc2N)cc2c(C)ccnc12,3,3,–,1,1,0.3,1,1,1,1,1,3,1,0.3,1,1,0.3,1,1,–
